Data reported in patent publication US20140037721A1, “Pharmaceutical Composition” (Alpharma pharmaceuticals LLC, priority 2007, published 2014).
Counter-ions that a name gives are not always drawn.

Experiments:
[1] = in comparison to a 15 mg dose of hydrocodone
opioid receptors = settings: cited from earlier work
[2] = cited from earlier work

Row | Compound | Equianalgesic Calculated Dose [1] [mg] | further results
1 | CCC(=O)C(CC(C)N(C)C)(c1ccccc1)c1ccccc1 (stereo not drawn) [Methadone, methadone] | 9.0 | 
2 | C[C@H]1[C@H]2Cc3ccc(O)cc3[C@]1(C)CCN2CC1CC1 [cyclazocine] |  | duration of action after oral administration (opioid receptors; in vivo, po): ~24 h
3 | O=C1CC[C@@]2(O)[C@H]3Cc4ccc(O)c5c4[C@@]2(CCN3CC2CC2)[C@H]1O5 [hydrochloride salt of naltrexone, naltrexone hydrochloride] |  | solubility in water [2]: about 100 mg/cc
4 | CN1CC[C@]23CCCC[C@H]2[C@H]1Cc1ccc(O)cc13 [Levorphanol, levorphanol] | 1.8 | 
5 | COc1ccc2c3c1OC1C(=O)CC[C@@]4(O)[C@@H](C2)N(C)CC[C@]314 (stereo partly drawn) [Oxycodone, 4,5-epoxy-14-hydroxy-3-methoxy-17-methylmorphinan-6-one] | 13.5 | 
6 | COc1ccc2c3c1OC1C(=O)CC[C@H]4[C@@H](C2)N(C)CC[C@]314 (stereo partly drawn) [Hydrocodone, 4,5-epoxy-3-methoxy-17-methylmorphinan-6-one] | 15.0 | 
7 | meperidine | 135.0 | 
8 | O=C1CC[C@@]2(O)[C@H]3Cc4ccc(O)c5c4[C@@]2(CCN3CC2CC2)[C@H]1O5 [naltrexone] |  | blockade of morphine effects (opioid receptors; normal volunteers, three 100-mg doses, MS Contin): blocked
9 | COc1ccc2c3c1O[C@H]1[C@@H](O)C=C[C@H]4[C@@H](C2)N(C)CC[C@@]341 [Codeine, codeine] | 90.0 | 
